Reference: patent US20100261694A1 (priority 2009, published 2010)
Where two headings read alike, the source gives them in different places.

Columns and labels:
[1] = system: Triticum aestivum leaf segments; format: cell-based; conditions: for Tunicamycin induced cell death: wheat, co-treatment 100 μM chaperone with 10 μg/ml tunicamycin, 72h
[2] = system: Physcomitrella patens gametophore cells; format: cell-based; conditions: for Tunicamycin induced cell death: moss, co-treatment 100 μM chaperone with 10 μg/ml tunicamycin, 72h
[3] = system: F. graminearum; format: in vivo, Fusarium graminearum; conditions: 100 μM chaperone; for Proliferation of F. graminearum on host tissue (GFP-tagged fungal cells, PCR): moss tissues; for Cell death markers (chlorosis, TUNEL-positive nuclei, Evans Blue staining, ROS induction) by the fungal pathogen: moss
[4] = system: Fusarium graminearum; format: in vivo; conditions: 100 μM chaperone; 10 days postinoculation
[5] = system: F. graminearum; format: cell-based, Fusarium graminearum; conditions: 100 μM; rich solid medium, no host
[6] = system: F. graminearum; format: in vivo, Fusarium graminearum; conditions: 100 μM chaperone; for Proliferation of F. graminearum on host tissue (GFP-tagged fungal cells, PCR): wheat tissues; for Cell death markers (chlorosis, TUNEL-positive nuclei, Evans Blue staining, ROS induction) by the fungal pathogen: wheat

How did the “Cell death (Evans Blue staining) compared to untreated control” value [1] turn out when Tunicamycin was run?
Its value is “more cell death”.

What about the “Cell death (Evans Blue staining) compared to untreated control” value [2] of the same molecule?
The value was “more cell death”.

`C[C@H](CCC(=O)NCCS(=O)(=O)O)[C@H]1CC[C@H]2[C@@H]3[C@@H](O)C[C@@H]4C[C@H](O)CC[C@]4(C)[C@H]3CC[C@]12C` [TUDCA, tauroursodeoxycholic acid] was tested. Which “Proliferation of F. graminearum on host tissue (GFP-tagged fungal cells, PCR)” value (from here on “Proliferation of F. graminearum”) [3] did it give?
Its value is “significantly suppress”.

What about the “Cell death markers (chlorosis, TUNEL-positive nuclei, Evans Blue staining, ROS induction) by the fungal pathogen” value (“Cell death markers” for short) [3] of the same molecule?
The value was “attenuated”.

And the “Tunicamycin induced cell death” value [1]?
Its value is “attenuated”.

And the “Fungal growth on inoculated wheat seeds” value [4]?
The value was “suppression of fungal growth”.

And the “Fungal growth and reproduction on solid growth medium” value [5]?
Its value is “did not affect fungal growth and reproduction”.

What about the “Proliferation of F. graminearum” value [6] of the same molecule?
Its value is “significantly suppress”.

And the “Cell death markers” value [6]?
Its value is “attenuated”.

And the “Tunicamycin induced cell death” value [2]?
The value was “attenuated”.

How did the “Proliferation of F. graminearum” value [3] turn out when `O=C(O)CCCc1ccccc1` [PBA, 4-phenylbutyric acid] was run?
The value was “significantly suppress”.

And the “Cell death markers” value [3]?
Its value is “attenuated”.

And the “Tunicamycin induced cell death” value [1]?
The value was “attenuated”.

What about the “Fungal growth on inoculated wheat seeds” value [4] of the same molecule?
Its value is “suppression of fungal growth”.

And the “Fungal growth and reproduction on solid growth medium” value [5]?
Its value is “did not affect fungal growth and reproduction”.

And the “Proliferation of F. graminearum” value [6]?
Its value is “significantly suppress”.

And the “Cell death markers” value [6]?
Its value is “attenuated”.

And the “Tunicamycin induced cell death” value [2]?
Its value is “attenuated”.
